Counter-ions that a name gives are not always drawn.
Experiments:
Assay type in all cases: in vivo, human
[1] = tested on: persistent daily headache with migraine features; assay: Case Study 1: persistent daily headache with migraine features; conditions: one patient; for Response of persistent daily headache to earlier therapy: before topiramate
Excerpt: The patient was a person with persistent daily headache with migraine features.

[2] = tested on: severe refractory migraine with and without aura; assay: Case Study 3: severe refractory migraine with and without aura
Protocol: The patient was a person with a twenty-year history of severe refractory migraine with and without aura. […] The patient was started on topiramate at 50 mg/day increasing to 100 mg in the morning and 100 mg in the evening, in combination with INDERAL at 160 mg/day. […] After about 6 months, the patient was prescribed EFFEXOR XR (vanlafaxine HCl) at 37 mg/day, an increased topiramate dose of 125 mg in the morning and 150 mg in the evening, and 160 mg/day INDERAL.

[3] = tested on: refractory migraine (migraine without aura); assay: Case Study 2: refractory migraine without aura; conditions: for Response of refractory migraine to earlier therapy: CORGARD in combination with PROZAC or CELEXA or trazodone
Protocol: The patient was a person with a lifelong history of refractory migraine (migraine without aura), averaging 8 migraines per month. […] The patient was started on topiramate at 25 mg/day, with dosage increasing to 75 mg/day. Simultaneously, the beta-blocker, CORGARD dosage was decreased to 20 mg/day, with CELEXA at 20 mg/day also continued.

## CNCCC=C1c2ccccc2CCc2ccccc21 [nortriptyline]
[1]
  Response of persistent daily headache to earlier therapy: failed to respond

## CNS(=O)(=O)CCc1ccc2[nH]cc(C3CCN(C)CC3)c2c1 [naratriptan]
[1]
  Response of severe headaches: did however respond

## CNS(=O)(=O)Cc1ccc2[nH]cc(CCN(C)C)c2c1 [sumatriptan]
[2]; repeated frequent use
  Response of severe refractory migraine: symptomatic response

## CN1CCC(=C2c3ccccc3C=Cc3ccccc32)CC1 [PERIACTIN, cyproheptadine HCl]
[1]
  Response of persistent daily headache to earlier therapy: failed to respond

## CC(C)NCC(O)COc1cccc2ccccc12.Cl (stereo not shown) [INDERAL, propranolol HCl]
[1]
  Response of persistent daily headache to earlier therapy: failed to respond
[2]; INDERAL at 120 mg/day in combination with tricyclic antidepressants
  Response of severe refractory migraine: Only modest response

## Cc1cc2nc3c(=O)[nH]c(=O)nc-3n(C[C@H](O)[C@H](O)[C@H](O)CO)c2cc1C [riboflavin]
[3]; 400 mg/day
  Effect of supplementation: no improvement

## O=c1n(CCCN2CCN(c3cccc(Cl)c3)CC2)nc2ccccn12 [trazodone]
[3]
  Response of refractory migraine to earlier therapy: no response

## CCCC(CCC)C(=O)O [DEPAKOTE, valproic acid]
[2]; earlier therapy
  Response of severe refractory migraine: modest symptomatic response
  Tolerability, reason for discontinuation: discontinued due to weight gain

## CC(C)(C)NCC(O)COc1cccc2c1CC(O)C(O)C2 (stereo not shown) [CORGARD, nadolol]
[3]
  Response of refractory migraine to earlier therapy: no response

## CNCCC(Oc1ccc(C(F)(F)F)cc1)c1ccccc1 (stereo not shown) [PROZAC, fluoxetine HCl]
[3]
  Response of refractory migraine to earlier therapy: no response

## CN(C)CCCC1(c2ccc(F)cc2)OCc2cc(C#N)ccc21 (stereo not shown) [CELEXA, citalopram HCl]
[3]
  Response of refractory migraine to earlier therapy: no response
